The values that follow come from patent publication US11124523B2, “2,6-dioxaspiro [4,5] decane derivatives and preparation method therefor and pharmaceutical applications thereof” (SHANDONG LUYE PHARMACEUTICAL CO., LTD., priority 2017, dated 2021).

SMILES strings stand for the structures. Counter-ions that a name gives are not always drawn.

In data set [1] the target is T1, human μ-subtype opioid receptor (hMOR) (Homo sapiens (Human), UniProt P35372). The data set is described as follows: MOR cAMP agonist activity test. Type of data set: cell-based. The settings on record: for Emax: maximum effect of enkephalin DAMGO was 100%. The procedure:
Test 1: MOR cAMP Agonist Activity Test
1.1 Experimental Purpose: To test the cAMP agonist activity of the compounds of the present disclosure on the human μ-subtype opioid receptor (hMOR).
a. Compound samples were dissolved in DMSO to a storage concentration of 10 mM.
(§1) b. A series of diluted samples were formulated on a 384-well LDV plate. A total of 11 concentration points were obtained by 3.162-fold gradient dilution.
c. The series of diluted samples were transferred to an experimental plate (Corning-3824) by using an Echo machine, wherein 30 nL was transferred corresponding to each well.
The experiment was performed using a cAMP detection kit from Cisbio (Cisbio #62AM4PEJ).
a. Assay buffer and stimulation buffer (STB) required for the experiment were formulated.
Stimulation Buffer: formulated with the assay buffer, containing 5 μM NKH477 (CAS: 138605-00-2) and 200 μM IBMX (3-isobutyl-1-methylxanthine)
b. […] The number of cells in the well was 10,000 cells/well.
c. The experimental plate was placed in a 37° C. constant-temperature incubator for incubation. The incubation was performed for 40 minutes.
d. A cAMP standard concentration curve was prepared. The first concentration point was at 2848 nM, and a total of sixteen detection concentrations were obtained by 4-fold gradient dilution. There were three replicates for each concentration point.
e. The cAMP detection kit from Cisbio was provided therein with a d2-labeled cAMP reagent (d2 reagent) and an Eu-labeled cAMP antibody reagent (Crypate reagent). The above two reagents were formulated according to the kit instructions, and then added to the sample experimental plate and to the cAMP standard concentration experimental plate, respectively. It was necessary to add 5 μL of the d2 reagent and then 5 μL of the Cryptate reagent to each well.
f. After the experimental plates were left at room temperature for 60 minutes, the experimental plates were read on the Envision.

Data set [2] addresses T1, human μ-subtype opioid receptor (hMOR). The data set is described as follows: MOR β-arrestin-2 agonist activity test. The settings on record: for Emax: maximum effect of enkephalin DAMGO was 100%, about 0% = no actual agonist activity. Type of data set: cell-based. The procedure:
Test 2: β-Arrestin-2 Agonist Activity Test
2.1 Experimental Purpose: To test the β-arrestin-2 agonist activity of the compounds of the present disclosure on the human μ-subtype opioid receptor (hMOR).
a. All samples were dissolved in DMSO to a storage concentration of 10 mM.
as §1
c. The series of diluted samples were transferred to an experimental plate by using an Echo machine, wherein 60 nL of the compound was transferred corresponding to each well.
d. 60 nL of 3.33 mM DAMGO (as HPE) and 60 nL of DMSO (as ZPE) were transferred to the corresponding positions on the experimental plate by using the Echo machine.
The experiment was performed using PathHunter Detection Kit from DiscoveRX Cooperation (DiscoveRX #93-0213C3)
a. Assay buffer and PathHunter detection reagent required for the experiment were formulated.
Assay Buffer: 1×DPBS buffer
PathHunter Detection Reagent: The kit was provided therein with three constituents.
c. The experimental plate was centrifuged at 300 rpm for 30 s and incubated at room temperature for 2 hours.
d. 6 μL of the PathHunter detection reagent was added to each well of the experimental plate.
e. The experimental plate was centrifuged at 300 rpm for 30 seconds, then left at room temperature for 60 minutes, and then read on the Envision.

A further data set addresses CYP2C19 (Homo sapiens (Human), UniProt P33261). The data set is described as follows: Inhibition of cytochrome P450 isoenzymes, CYP2C19. Type of data set: in vitro ADME. The note with it: >50 μM: inhibitory effect less than 50% at 50 μM; read-out: CYP 2C19 IC50. The procedure:
4.1 Experimental Purpose: To test the inhibitory effects of the compounds of the present disclosure on different isoforms of human cytochrome P450 isoenzymes
1) The activities of CYP1A2, 2C9, 2C19, 2D6, and 3A4 were measured using a standard substrate method. In each reaction, the enzyme activities were measured in the presence and absence of the substance to be tested, wherein a single sample was measured at a total of eight test concentrations. A 5-in-1 mixed inhibitor was used.
2) An incubation matrix comprising microsomes, a substrate, and an inhibitor or the compound to be tested was pre-incubated at 37° C. for 5 minutes, and then NADPH was added to start the reaction.
3) After the incubation, acetonitrile with an internal standard was added to stop the reaction.
4) Metabolites generated by the substrates were measured by using the LC-MS/MS method, and the peak area ratio of each metabolite to the internal standard was evaluated and the inhibition rate and IC50 were calculated.

The mark [3] stands for this setting: >30000 nM = greater than the highest detection concentration, read-out: MOR β-arrestin-2 EC50.

CYP2C19, sequence (P33261 whole entry, canonical isoform): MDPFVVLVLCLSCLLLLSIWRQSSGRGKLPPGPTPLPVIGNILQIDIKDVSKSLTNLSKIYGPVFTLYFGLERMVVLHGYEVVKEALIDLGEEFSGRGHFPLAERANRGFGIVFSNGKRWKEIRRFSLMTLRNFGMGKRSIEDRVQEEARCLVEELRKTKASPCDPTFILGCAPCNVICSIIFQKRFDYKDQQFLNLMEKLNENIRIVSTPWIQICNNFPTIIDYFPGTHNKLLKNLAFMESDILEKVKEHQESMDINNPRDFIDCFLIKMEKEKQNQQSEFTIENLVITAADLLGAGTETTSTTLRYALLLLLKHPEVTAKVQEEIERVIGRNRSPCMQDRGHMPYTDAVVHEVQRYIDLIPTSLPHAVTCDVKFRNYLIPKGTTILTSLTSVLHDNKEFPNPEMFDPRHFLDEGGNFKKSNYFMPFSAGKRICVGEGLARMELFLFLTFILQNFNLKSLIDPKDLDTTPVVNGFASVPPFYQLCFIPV

As a reminder, the Emax is the size of the effect at its maximum, as opposed to the concentration needed. In general, EC50 refers to the midpoint of the concentration-response curve. What is called IC50 is the concentration at which inhibition is half-maximal. Take `c1ccc([C@]2(CCNCc3scc4c3CCC4)CCO[C@]3(CCOC3)C2)nc1` [(+)-2]: the results for the Emax in data set [1] and in data set [2] were 96% and approximately 0%, respectively. In addition, the concentration for a half-maximal effect (EC50) in data set [2] (setting [3]) is more than 30 µM. Besides, the IC50 at CYP2C19 is more than 50 µM.

In the case of `Fc1ccc([C@]2(CCNCc3cccc(Cl)c3)CCO[C@]3(CCOC3)C2)nc1` [(+)-16], the EC50 in data set [1] is 0.0005 µM; in data set [2] (setting [3]), more than 30 µM. For the same compound, the Emax in data set [1] is 91.7%; in data set [2], approximately 0%. For the same compound, the IC50 on CYP2C19 was 33.7 µM.

For the compound `Cc1cccc(CNCC[C@@]2(c3ccc(F)cn3)CCO[C@]3(CCOC3)C2)c1` [Hydrochloride Salt of (+)-22], in data set [1], the Emax stood at 93.3%. Further, in data set [2], the 50% effective concentration (EC50) was more than 30 µM and the Emax was approximately 0%. Also, the IC50 on CYP2C19 is more than 50 µM.

`Fc1ccc([C@]2(CCNCc3cccc(F)c3)CCO[C@]3(CCOC3)C2)nc1` [Hydrochloride Salt of (+)-23]: the 50% effective concentration (EC50) is 0.001 µM in data set [1] and more than 30 µM in data set [2] (setting [3]). Further, the maximal effect (Emax) in data set [1] is 84.5%; in data set [2], approximately 0%. The IC50 on CYP2C19 was more than 50 µM.

On to `COc1ccsc1CNCC[C@@]1(c2ccccn2)CCOC2(CCCC2)C1` [compound 1, Oliceridine, reference compound], for which the Emax in data set [1] was determined as 82.7%; in data set [2], 4.5%. In addition, on CYP2C19, the IC50 is more than 50 µM.
